This note sets out measurements from patent US7365095B2, “Chromane and chromene derivatives and uses thereof” (Wyeth, priority 2005, dated 2008).

The target of assay [1] is T1, human 5-hydroxytryptamine-2C (h5-HT2C) receptor (Homo sapiens, UniProt P28335).
T1 construct: expressed in transfected cells; host or cells: CHO (Chinese Hamster Ovary) cells; membrane preparation
T1 sequence (P28335 33-458): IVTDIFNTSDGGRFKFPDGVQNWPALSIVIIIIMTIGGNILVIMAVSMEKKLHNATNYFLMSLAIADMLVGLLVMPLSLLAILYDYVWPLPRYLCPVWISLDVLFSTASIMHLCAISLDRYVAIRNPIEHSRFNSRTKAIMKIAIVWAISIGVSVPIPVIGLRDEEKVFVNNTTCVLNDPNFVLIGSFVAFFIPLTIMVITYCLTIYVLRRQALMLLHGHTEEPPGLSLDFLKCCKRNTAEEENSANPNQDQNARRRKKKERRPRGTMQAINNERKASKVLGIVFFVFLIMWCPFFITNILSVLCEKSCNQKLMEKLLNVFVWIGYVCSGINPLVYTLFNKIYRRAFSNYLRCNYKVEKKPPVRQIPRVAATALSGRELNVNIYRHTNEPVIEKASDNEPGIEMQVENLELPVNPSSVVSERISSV
The assay can be described thus: [125I]DOI binding to membranes of CHO cells expressing h5-HT2C receptor. Particulars: read-out: 5-HT2C Binding Ki avg.

Another assay deals with T2, human 5-HT2C receptor (Homo sapiens, UniProt P28335).
T2 sequence (P28335 33-458): T1 sequence (P28335 33-458)
The assay can be described thus: calcium mobilization (FLIPR) in CHO cells stably expressing the human 5-HT2C receptor. In kind it is cell-based. As to conditions: for Emax: CHO, read-out: 5-HT2C Function EMax (%); for EC50: calcium mobilization, read-out: 5-HT2C Function EC50.

Each structure is given as a SMILES string. Counter-ions that a name gives are not always drawn. Some results are limits rather than exact numbers.

As for `COc1ccc(-c2cccc3c2O[C@H](CN)CC3)c(OC)c1` [Compound 32, {[(2S)-8-(2,4-dimethoxyphenyl)-3,4-dihydro-2H-chromen-2-yl]methyl}amine hydrochloride], the Ki in assay [1] lay within 10 to 50 nM. At human 5-HT2C receptor, the Emax is 90% and the EC50 lay in the range of 50 to 200 nM.
As to `CNC[C@H]1CCc2cc(F)cc(-c3ccc(Cl)cc3Cl)c2O1` [Compound 41, {[(2R)-8-(2,4-dichlorophenyl)-6-fluoro-3,4-dihydro-2H-chromen-2-yl]methyl}methylamine hydrochloride], the Ki in assay [1] is 10 to 50 nM. On human 5-HT2C receptor, the Emax worked out at 90% and the EC50 lay within 50 to 200 nM.
For `NCC1C=Cc2cc(F)cc(-c3ccccc3Cl)c2O1` (stereo not drawn) [Compound 62, {[8-(2-chlorophenyl)-6-fluoro-2H-chromen-2-yl]methyl}amine hydrochloride], in that order: 10 to 50 nM, 100% and less than 50 nM.
The like results for `CNCC1C=Cc2cc(F)cc(-c3ccccc3Cl)c2O1` (stereo not drawn) [Compound 61, {[8-(2-chlorophenyl)-6-fluoro-2H-chromen-2-yl]methyl}methylamine hydrochloride] were, in that order, no more than 10 nM, 90% and less than 50 nM.
For `NCC1CCc2cc(F)cc(-c3ccccc3Cl)c2O1` (stereo not drawn) [Compound 37, {[8-(2-chlorophenyl)-6-fluoro-3,4-dihydro-2H-chromen-2-yl]methyl}amine hydrochloride], in that order: no more than 10 nM, 100% and less than 50 nM.
Consider `Cc1ccccc1-c1cc(F)cc2c1O[C@@H](CN)CC2` [Compound 49, {[(2R)-6-fluoro-8-(2-methylphenyl)-3,4-dihydro-2H-chromen-2-yl]methyl}amine hydrochloride], for which the Ki in assay [1] was no more than 10 nM. On human 5-HT2C receptor, the maximum response (Emax) amounted to 90% and the half-maximal effective concentration (EC50) is less than 50 nM.
As to `CNC[C@H]1CCc2cc(F)cc(-c3cccnc3)c2O1` [Compound 44, {[(2R)-6-fluoro-8-pyridin-3-yl-3,4-dihydro-2H-chromen-2-yl]methyl}methylamine hydrochloride], in assay [1], the Ki was in the range of 10 to 50 nM. Also, on human 5-HT2C receptor, the Emax is 80% and the 50% effective concentration (EC50) is greater than 200 nM.
For the compound `CNC[C@H]1CCc2cc(F)cc(-c3ccccc3C)c2O1` [Compound 43, {[(2R)-6-fluoro-8-(2-methylphenyl)-3,4-dihydro-2H-chromen-2-yl]methyl}methylamine hydrochloride], the Ki in assay [1] was no more than 10 nM. In addition, on human 5-HT2C receptor, the Emax was 90% and the concentration giving a half-maximal response (EC50) lay in the range of 50 to 200 nM.
The like results for `CNC[C@H]1CCc2cc(F)cc(-c3ccccc3)c2O1` [Compound 42, {[(2R)-6-fluoro-8-phenyl-3,4-dihydro-2H-chromen-2-yl]methyl}methylamine hydrochloride] were, in that order, no more than 10 nM, 90% and 50 to 200 nM.
As to `CNC[C@H]1CCc2cccc(-c3cccnc3)c2O1` [Compound 9, N-methyl-N-{[(2R)-8-pyridin-3-yl-3,4-dihydro-2H-chromen-2-yl]methyl}amine hydrochloride], the Ki in assay [1] is no more than 10 nM. Further, at human 5-HT2C receptor, the Emax was found to be 100% and the 50% effective concentration (EC50) was less than 50 nM.
For `CNC[C@H]1CCc2cccc(-c3ccccc3OC)c2O1` [Compound 6, N-{[(2R)-8-(2-methoxyphenyl)-3,4-dihydro-2H-chromen-2-yl]methyl}-N-methylamine hydrochloride], in that order: no more than 10 nM, 90% and less than 50 nM.
In the case of `NC[C@H]1C=Cc2cc(F)cc(-c3ccccc3Cl)c2O1` [Compound 64, {[(2R)-8-(2-chlorophenyl)-6-fluoro-2H-chromen-2-yl]methyl}amine hydrochloride], the inhibition constant Ki in assay [1] was no more than 10 nM. Moreover, at human 5-HT2C receptor, the Emax amounted to 90% and the concentration giving a half-maximal response (EC50) is less than 50 nM.

One may read the Ki as the equilibrium dissociation constant of an inhibitor or competing ligand from its target. By Emax is commonly meant the size of the effect at its maximum, as opposed to the concentration needed. Broadly, the EC50 is the concentration needed to bring the measured effect to its halfway point.
